Patent US9546152B2 (MERCK SHARP & DOHME CORP., priority 2012, dated 2017)
pIC50, pKi: −log10 of the molar value. Read-outs that look alike come from different tables or passages of the source.

Experiments:
[1] = molecular target: orexin-1 receptor (hOX1R) (Rattus norvegicus, UniProt P56718); assay: radioligand binding assay, orexin-1 receptor; conditions: membranes prepared from CHO cells expressing the OX1 receptor; read-out: hOX1R BIND hKi
Experimental: In a typical experiment the OX1 and OX2 receptor antagonistic activity of the compounds of the present invention was determined in accordance with the following experimental method. For intracellular calcium measurements, Chinese hamster ovary (CHO) cells expressing the rat orexin-1 receptor or the human orexin-2 receptor, are grown in Iscove's modified DMEM containing 2 mM L-glutamine, […], 1% hypoxanthine-thymidine supplement, 100 U/ml penicillin, 100 μg/ml streptomycin and 10% heat-inactivated fetal calf serum (FCS). The cells are seeded at 20,000 cells/well into Becton-Dickinson black 384-well clear bottom sterile plates coated with poly-D-lysine. […] Within the Fluorescent Imaging Plate Reader (FLIPR, Molecular Devices), test compounds are added to the plate in a volume of 25 μl, incubated for 5 min and finally 25 μl of agonist is added. Fluorescence is measured for each well at 1 second intervals for 5 minutes and the height of each fluorescence peak is compared to the height of the fluorescence peak induced by 70 pM Ala-6,12 orexin-A with buffer in place of antagonist. […] Alternatively, compound potency can be assessed by a radioligand binding assay (described in Bergman et. al. Bioorg. Med. Chem. Lett. 2008, 18, 1425-1430) in which the inhibition constant (Ki) is determined in membranes prepared from CHO cells expressing either the OX1 or OX2 receptor. […]

rat orexin-1 receptor = rat orexin-1 receptor (Rattus norvegicus (Rat), UniProt P56718); assay: FLIPR Ca2+ Flux Assay, orexin-1 receptor; format: cell-based; conditions: read-out: hOX1R FLIPR IC50
rat orexin-1 receptor, sequence (P56718 whole entry): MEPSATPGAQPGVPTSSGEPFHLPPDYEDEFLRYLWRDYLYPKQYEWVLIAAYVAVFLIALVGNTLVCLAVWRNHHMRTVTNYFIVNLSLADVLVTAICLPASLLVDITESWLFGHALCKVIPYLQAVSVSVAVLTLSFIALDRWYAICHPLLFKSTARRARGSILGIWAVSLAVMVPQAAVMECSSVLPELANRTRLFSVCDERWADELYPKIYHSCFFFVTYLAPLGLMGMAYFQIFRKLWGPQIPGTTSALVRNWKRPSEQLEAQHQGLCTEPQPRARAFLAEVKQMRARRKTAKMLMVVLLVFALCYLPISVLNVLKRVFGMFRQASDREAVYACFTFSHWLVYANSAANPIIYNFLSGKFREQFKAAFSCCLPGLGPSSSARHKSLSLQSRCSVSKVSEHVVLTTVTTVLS
How it was run: (§1)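 Using CHO lines carrying either rat orexin-1 or human orexin-2 receptor, compounds were tested as antagonists of 70 pM Ala-6,12 orexin-A-evoked calcium rises. Fluo-4 signal was read on a FLIPR over 5 min after a 5 min compound preincubation.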

human orexin-2 receptor [2] = molecular target: T1, human orexin-2 receptor (Homo sapiens (Human), UniProt O43614); assay: FLIPR Ca2+ Flux Assay, orexin-2 receptor; format: cell-based; conditions: read-out: hOX2R FLIPR IC50
T1 sequence (O43614 whole entry): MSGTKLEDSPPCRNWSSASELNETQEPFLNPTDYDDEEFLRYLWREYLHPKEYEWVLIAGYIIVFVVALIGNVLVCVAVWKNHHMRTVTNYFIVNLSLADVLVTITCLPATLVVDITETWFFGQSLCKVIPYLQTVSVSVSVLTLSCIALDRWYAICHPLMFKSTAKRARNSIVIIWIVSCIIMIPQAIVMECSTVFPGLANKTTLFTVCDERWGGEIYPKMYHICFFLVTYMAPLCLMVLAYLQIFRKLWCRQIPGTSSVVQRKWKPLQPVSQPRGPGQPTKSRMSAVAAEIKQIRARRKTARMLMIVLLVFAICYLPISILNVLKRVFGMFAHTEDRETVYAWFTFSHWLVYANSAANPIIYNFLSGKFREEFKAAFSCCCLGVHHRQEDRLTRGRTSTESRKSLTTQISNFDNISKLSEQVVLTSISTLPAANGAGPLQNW
How it was run: as §1

human orexin-2 receptor [3] = molecular target: T1, human orexin-2 receptor; assay: radioligand binding assay, orexin-2 receptor; conditions: read-out: hOX2R BIND hKi
[4] = CHO cells expressing the rat orexin-1 receptor, agonist 70 pM Ala-6,12 human orexin-A
[5] = CHO cells expressing the human orexin-2 receptor, agonist 70 pM Ala-6,12 human orexin-A
[6] = membranes prepared from CHO cells expressing the OX2 receptor

orexin-1 receptor (hOX1R), sequence (P56718 whole entry, looked up): as the sequence (P56718 whole entry) above

Structure (SMILES) | pKi [1] | pIC50 (rat orexin-1 receptor) | pIC50 (human orexin-2 receptor [2]) | pKi (human orexin-2 receptor [3]) | pIC50 (rat orexin-1 receptor; [4]) | pIC50 (human orexin-2 receptor [2]; [5]) | pKi (human orexin-2 receptor [3]; [6])
COc1c(C#N)ccnc1O[C@@H]1CC[C@@H](C)N(C(=O)c2cccc(F)c2-c2ncccn2)C1 [Example 109] | 6.32 | 5.55 | 7.59 | 8.96 |  |  | 
COc1ccc(C(=O)N2C[C@H](Oc3nccc(C#N)c3C)CC[C@H]2C)c(-c2cccnc2)n1 [Example 82, 2-({(3R,6R)-1-[(6-methoxy-2,3′-bypyridin-3-yl)carbonyl]-6-methylpiperidin-3-yl}oxy)-3-methylpyridine-4-carbonitrile] |  |  |  |  | 5.08 | 7.26 | 8.62
C[C@@H]1CC[C@@H](Oc2nccc(C#N)c2C#N)CN1C(=O)c1ccccc1-n1nccn1 [Example 94, 2-{[(3R,6R)-6-methyl-1-{[2-(2H-1,2,3-triazol-2-yl)phenyl]carbonyl}piperidin-3-yl]oxy}pyridine-3,4-dicarbonitrile] |  |  |  |  | < 5.00 | 7.40 | 8.36
